{
  "source": "patent US20110207689A1",
  "about": "“THE TREATMENT OF HEARING LOSS” (Auckland UniServices Limited, priority 2008, published 2011)",
  "assay_type_in_all_cases": "in vivo, Wistar rats",
  "key": {"[1]": {"system": "organ of Corti hair cells", "test": "Hair cell counts after acute (2 hours) noise exposure (Experiment 2)", "conditions": "2 h noise 110 dB SPL; five ADAC injections; vehicle 23-34%", "method": "After the overnight fixation, the cochlea was decapsulated in 0.1 M PBS, to isolate the organ of Corti. The organ of Corti was removed with fine forceps, and separated into the apical, middle and basal turns. Wholemount tissues of the organ of Corti were placed into a 24-well plate, and then permeabilised with 1% Trition-X in 0.1 M PBS for 1 hour. 1% Alexa Fluor 488 phalloidin (Invitrogen) dissolved in 0.1 M PBS was used to stain the hair cells and their stereocilia. Tissues were incubated in phalloidin for 40 minutes, washed with 0.1 M PBS 3×10 min and mounted onto glass slides using CitiFlour. The slides were visualised using a Zeiss epi-fluorescence microscope and processed with Axiovision v3.1 software, using dark field filter and 100×, 200×, and 400× magnification. Non-overlapping images were taken for the entire length of the cochlea, and the number of missing outer hair cells was counted for each turn and presented as a percentage of total number of hair cells.\nThe percentage of total number of hair cells was determined as for Experiment 1.\nThe outer and inner hair cells were counted in Alexa 488 phalloidin-labelled surface preparation of the organ of Corti in the basal, middle and apical turns and the percentage of missing hair cells was calculated for each turn."}, "[2]": {"system": "rats exposed to 8-12 kHz band noise for 24 hours at 110 dB SPL", "test": "ABR threshold recovery after prolonged (24 hours) noise exposure, systemic ADAC (Experiment 1)", "conditions": "for recovery of ABR thresholds: 24 h noise 110 dB SPL", "method": "In Experiments 1 and 2, Wistar rats were exposed to noise (8-12 kHz, 110 dB SPL for 2-24 hours). ADAC was then administered to the Wistar rats at 100 μg/kg/day. The ADAC was either administered as a single injection 6 hours after noise exposure, or as a single injection 24 hours after noise exposure, or as multiple injections, with the first injection of the multiple injections being administered 6 hours after noise exposure.\n(§1) Hearing thresholds were assessed using auditory brainstem responses (ABRs) and the cellular damage was evaluated by quantitative histology (hair cell loss). ABR represents the activity of the auditory nerve and the central auditory pathways (brainstem/mid-brain regions) responding to the sound (clicks or pure tones). Nitrotyrosine marker was used for the immunohistochemical assessment of free radical damage.\nAdenosine amine congener (ADAC) was obtained from Dr Ken Jacobson (NIH, Bethesda, USA). ADAC ([…]) was dissolved first in 100 μL of 1N HCl and then in 50 ml of 0.1 M PBS (pH 7.4), making a 50 μg/mL stock solution. This solution was aliquoted at 1 mL in eppendorf tubes, and stored at −20° C. for later use. When required, the ADAC aliquots were heated in a 37° C. water bath for 30 minutes before administration. ADAC injection dose was […] given intraperitoneally, 200 μl/100 g body weight.\nThe rats were exposed to 8-12 kHz band noise presented for 24 hours at 110 dB SPL. This was done in a custom built acoustic chamber (Shelburg Acoustics, Sydney, Australia) with internal speakers and external controls (sound generator and frequency selector). Sound intensity inside the chamber was tested using a calibrated Rion NL-40 sound level meter to ensure minimal deviations of sound intensity (110±1 dB SPL). Up to 4 rats were placed in the chamber in a standard rat cage. They were introduced to the sound chamber at 1 hour intervals so that the timing of subsequent ABRs could be kept consistent for all rats.\nABR represents the activity of the auditory nerve and the central auditory pathways (brainstem/mid-brain regions) responding to the sound (clicks or pure tones). ABRs were obtained by placing fine platinum electrodes subdermally at the mastoid region of the ear of interest (active electrode), scalp vertex (reference) and mastoid region of the opposite ear (ground electrode). A series of auditory clicks or pure tones (4-28 kHz) presented at varying intensity and thresholds generate electrical activity reflecting differing levels of auditory processing. The sound threshold of the ABR complex (waves I-IV) were determined by progressively attenuating the sound intensity until the waveform can no longer be observed.\nThe acoustic stimuli for ABR were produced and the responses recorded using a Tucker-Davis Technologies auditory physiology workstation (Alachua, Fla., USA).\nAll ABR measurements were performed in a sound attenuator chamber (Shelburg Acoustics, Sydney, Australia). Rats were anaesthetised with the mixture of Ketamine (75 mg/kg) and Xylazine (10 mg/kg) intraperitoneally, and then placed onto a heating pad, to maintain body temperature at 37° C. ABR potentials were evoked with digitally produced 5 ms tone pips (0.5 ms rise-fall time) at frequencies between 4 and 28 kHz in half-octave steps. Sound pressure level (SPL) was raised in 5 dB steps starting from 10 dB below threshold level to 90 dB SPL. Responses were averaged at each sound level (1024 repeats with stimulus polarity alternated), and response waveforms were discarded when peak-to-peak amplitude exceeded 15 μV. The ABR threshold was defined as the lowest intensity (to the nearest 5 dB) at which a response could be visually detected above the noise floor.\nABR thresholds were measured before and after noise exposure, and after ADAC/vehicle treatment. Post-noise ABR recordings were obtained 1 hour before the rats received their first ADAC or vehicle injection. […]"}, "[3]": {"system": "nitrotyrosine immunoreactivity in the organ of Corti", "test": "Nitrotyrosine (NT) immunohistochemistry of cochlea after 24 hours noise (Experiment 1)", "conditions": "ADAC treated cochlea versus vehicle", "method": "as §1\nAfter overnight fixation in 4% PFA, rat cochleae were decalcified in a 5% EDTA solution for 7 days and cryoprotected in a 30% sucrose (in 0.1 M PB) solution overnight. The cochleae were snap-frozen in N-pentane, and stored at −80° C. until further processing. Frozen cochlear tissues were cryosectioned at 30 μm and transferred into 24-well plates (Nalge Nunc Int., Naperville, USA) containing the sterile 0.1M PBS, and permeabilised with 1% Triton X-100 for 1 hr. Non-specific binding sites were blocked with 10% normal goat serum (Vector Laboratories, Burlingame, Calif.). […] Tissue sections were incubated with the secondary antibody for 2 hours in the dark, then rinsed several times in PBS, mounted in fluorescence medium (DAKO Corporation, Carpinteria, Calif., USA) and screened for NT specific immunofluorescence using a confocal microscope (TCS SP2, Leica Leisertechnik GmbH, Heidelberg, Germany). […]"}},
  "note": "“Also recorded” adds a separate entry of the source.",
  "data": [
    {"smiles": "NCCNC(=O)Cc1ccc(NC(=O)Cc2ccc(Nc3ncnc4c3ncn4[C@@H]3O[C@H](CO)[C@@H](O)[C@H]3O)cc2)cc1", "note": "[ADAC, adenosine amine congener]", "values": [
      {"measurement": "hair cell loss, basal cochlear turn (average)", "setting": "[1]", "value": 9, "unit": "%"},
      {"measurement": "hair cell loss, middle cochlear turn (average)", "setting": "[1]", "value": 7, "unit": "%"},
      {"measurement": "effect on threshold recovery", "setting": "[2]; ADAC administration 24 hours after noise exposure, FIG. 3", "value": "less pronounced"},
      {"measurement": "recovery of ABR thresholds at all pure tone frequencies", "setting": "[2]; chronic treatment (5 days, five injections every 24 hours commencing 6 hours post-noise), 100 μg/kg i.p.", "value": "22-28 dB"},
      {"measurement": "highest recovery of ABR thresholds (mean ± SEM)", "setting": "[2]; group that received multiple injections of ADAC (FIGS. 4 and 5), follows sentence on auditory clicks", "value": 29, "unit": "dB"},
      {"measurement": "best recovery of hearing thresholds", "setting": "[2]; prolonged ADAC treatment (5 injections), FIG. 4", "value": "< 25", "unit": "dB"},
      {"measurement": "lowest recovery of ABR thresholds (mean ± SEM)", "setting": "[2]; single ADAC injection 24 hours after noise exposure (FIGS. 3 and 5), follows sentence on auditory clicks", "value": "8±2", "unit": "dB"},
      {"measurement": "recovery of ABR thresholds", "setting": "[2]; single injection ADAC 100 μg/kg i.p. 24 hours after noise exposure", "value": "5-12 dB"},
      {"measurement": "recovery of ABR thresholds", "setting": "[2]; single injection ADAC 100 μg/kg i.p., early treatment 6 hours after noise", "value": "17-26 dB"},
      {"measurement": "threshold recovery versus control group", "setting": "[2]; single injection of ADAC 6 hours after noise exposure, pure tones and auditory clicks, p<0.05, p<0.01", "value": "statistically significant difference between the groups in the level of recovery"},
      {"measurement": "NT immunostaining in the cochlea", "setting": "[3]", "value": "very little NT immunostaining; also recorded: reduced in the ADAC treated cochlea to a background level"}
    ]}
  ]
}
